According to patent publication US11192894B2, “Cell impermeable coelenterazine analogues” (PROMEGA CORPORATION, priority 2016, dated 2021):

Key:
[1] = test system: Nluc-b2 adrenergic receptor (B2AR); assay: Bioluminescence imaging of Nluc-B2AR in HeLa cells; type: cell-based; conditions: 10 uM substrate, Olympus LV200, FIGS. 4A and 4B
Experimental: FIGS. 4A and 4B show the results of imaging of Nluc-B2AR in HeLa cells using furimazine and JRW-0769. HeLa cells were reverse transfected with an expression construct for Nluc-b2 adrenergic receptor (B2AR) and plated into a LabTEKII chambered coverslip (50,000 cells per well in 400 uL medium) and incubated overnight. For imaging, the medium was removed and replaced with CO2-independent medium. Immediately before placing the sample onto the imaging instrument, Furimazine or JRW-0769 was added to the cells at a final concentration of 10 uM. Image acquisition was performed on an Olympus LV200 bioluminescence imager using a 40×/0.95 NA objective with electromultiplying gain set to 400 and an acquisition time of 0.5 sec (Furimazine) and 2.5 sec (JRW-0769).
HeLa cells were reverse transfected with an expression construct for Nluc-b2 adrenergic receptor (B2AR) and plated into a LabTEKII chambered coverslip (50,000 cells per well in 400 uL medium) and incubated overnight. For imaging, the medium was removed and replaced with CO2-independent medium. Immediately before placing the sample onto the imaging instrument, Furimazine or JRW-0769 was added to the cells at a final concentration of 10 uM. […]

[2] = target: purified NANOLUC® Luciferase (Oplophorus gracilirostris, UniProt Q9GV45, A31E/A60N/A81I/F95D/I117V/K70R/L54V/L99Q/M102K/N193R/P142E/Q151K/Q38R/Q45L/V71I/Y165I); type: biochemical; conditions: for RLU at 100 uM: relative value, furimazine set to 1, purified NanoLuc, initial light output three minutes after substrate addition
Experimental: Each compound to be screened was dissolved in DMSO (5 mM) and then further diluted to 100 uM in NANO-GLO® Luciferase Assay Buffer. Each diluted substrate was then combined in equal volumes with purified NANOLUC® Luciferase diluted into CO2 independent media+10% FBS. Initial light output for each substrate was measured in a GloMax®-Multi+ luminometer three minutes after substrate addition and then at five minute intervals as a means to determine signal half-life. […] Km was calculated using GraphPad Prism using non linear Michaelis-Menten regression.

NanoLuc:KDR = assay: Cell-based luciferase assay, HEK293 cells expressing NanoLuc:KDR (NanoLuc on the cell surface), ± extracellular inhibitor JRW-0344; conditions: 10 μM substrate ± 20 μM inhibitor, FIG. 2A
Experimental: (§1) FIGS. 2A-2D show extracellular bioluminescent activity of exemplary compounds in HEK293 cells. HEK293 cells were transfected with two different membrane bound NANOLUC® fusions: 1) NanoLuc:KDR, presenting NanoLuc on the outside of the membrane; 2) KDR:NanoLuc, presenting NanoLuc on the inside of the membrane. The cell impermeable NANOLUC® inhibitor JRW-0344 (disclosed in U.S. Ser. No. 15/192,420 to Duellman et al., “THIENOPYRROLE COMPOUNDS AND USES THEREOF,” filed Jun. 24, 2016), was added to the cells to inhibit extracellular bioluminescent activity.
(§2) HEK293 cells were maintained in DMEM containing 100 IU/ml penicillin, 100 μg/ml streptomycin, and 10% fetal calf serum at 37° C. in 5% CO2. Dulbecco's modified eagle medium (DMEM), Opti-MEM, Penicillin/Streptomycin, and Trypsin-EDTA are purchased from Life Technologies (Carlsbad). Fetal calf serum (FBS) is purchased from HyClone (GE Healthcare). Microtiter plates were purchased from Corning.
(§3) HEK293 cells were transiently transfected with two different integral membrane NanoLuc fusion proteins: 1) NanoLuc:KDR, presenting NanoLuc on the cell surface; 2) KDR:NanoLuc, presenting NanoLuc in the interior of the cell. After 24 hours, transfected cells were collected, resuspended in OptiM at 200,000 cell/ml and plated into wells of white, 96-well plates at 100 μL/well. For luminescent measurements, cells were treated with the indicated substrates at a final concentration of 10 μM or 20 μM in the presence or absence of 20 μM cell impermeable NanoLuc inhibitor JRW-0344. The luminescent signal was analyzed 3 minutes after substrate addition using a GLOMAX® Discover multimode detection plate reader (Promega).

KDR:NanoLuc [3] = assay: Cell-based luciferase assay, HEK293 cells expressing KDR:NanoLuc (NanoLuc in the interior of the cell), ± extracellular inhibitor JRW-0344; conditions: HEK293 expressing KDR:Nluc; 10 μM substrate ± 20 μM JRW-0344; FIG. 2C
Experimental: as §1, §2, §3

KDR:NanoLuc [4] = assay: Lytic vs. live cell format, HEK293 cells expressing KDR:NanoLuc; type: cell-based; conditions: digitonin (lytic) or JRW-0344 (live), FIG. 3C
Experimental: (§4) FIGS. 3A-D show the activities of cell permeable and cell impermeable compounds at various substrate concentrations. HEK293 cells were transfected (1:100 carrier DNA) with the fusion protein KDR:NanoLuc, which presents membrane bound NanoLuc on the inside of the membrane. Cells were then treated with digitonin (for lytic format) or JRW-0344 (for live cell format). Both sets were treated with varying substrate concentrations to give Michaelis-Menten type plots. […] However, substrates that are cell impermeable (or mostly impermeable) show large differences between live and lytic cell formats (FIG. 3C).
as §4, with “HEK293” for “FIGS. 3A-D show the activities of cell permeable and cell impermeable compounds at various substrate concentrations. HEK293”, “digitonin to lyse the cell membrane” for “digitonin”, “format) to compare activity of cell permeable and non-cell permeable substrates.” for “format).”

Chain of purified NANOLUC® Luciferase (Q9GV45 28-196 with tags or gaps with the stated changes limits assumed): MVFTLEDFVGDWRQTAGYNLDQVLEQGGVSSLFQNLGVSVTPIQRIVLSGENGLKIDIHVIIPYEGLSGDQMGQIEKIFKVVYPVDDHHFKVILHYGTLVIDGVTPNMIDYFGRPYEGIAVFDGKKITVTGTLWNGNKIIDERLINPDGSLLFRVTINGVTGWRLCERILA

SMILES: O=c1c(Cc2ccco2)nc2c(Cc3ccccc3)[nH]c(-c3ccccc3)cn1-2 [Furimazine, reference compound]
- Localization of the imaged Nluc-B2AR signal [1]: intracellular Nluc-B2AR
- RLU (absolute light output that is set to 1) ([2]; 2.5 ng/mL NanoLuc): ~1.0×10^7 RLU
- RLU at 100 uM [2]: 1

SMILES: O=c1c(Cc2cccc(OCCCCCCS(=O)(=O)[O-])c2)nc2c(Cc3ccccc3)[nH]c(-c3ccccc3)cn1-2.[Na+] [JRW-0703, sodium 6-(3-((8-benzyl-3-oxo-6-phenyl-3,7-dihydroimidazo[1,2-a]pyrazin-2-yl)methyl)phenoxy)hexane-1-sulfonate]
- Difference in RLU's in the presence and absence of the extracellular inhibitor (NanoLuc:KDR): Larger differences in RLU's
- RLU and effect of the extracellular inhibitor (KDR:NanoLuc [3]): much dimmer and can be inhibited close to background level
- Lowered activity in the live cell format versus lytic format (KDR:NanoLuc [4]): 100 fold
- RLU at 100 uM [2]: 0.016

SMILES: O=c1c(Cc2ccc(OCCCCCCS(=O)(=O)[O-])c(Cl)c2)nc2c(Cc3ccccc3)[nH]c(-c3ccccc3)cn1-2.[Na+] [JRW-0728, sodium 6-(4-((8-benzyl-3-oxo-6-phenyl-3,7-dihydroimidazo[1,2-a]pyrazin-2-yl)methyl)-2-chlorophenoxy)hexane-1-sulfonate]
- Difference in RLU's in the presence and absence of the extracellular inhibitor (NanoLuc:KDR): Larger differences in RLU's
- RLU and effect of the extracellular inhibitor (KDR:NanoLuc [3]): much dimmer and can be inhibited close to background level
- Lowered activity in the live cell format versus lytic format (KDR:NanoLuc [4]): 100 fold
- RLU at 100 uM [2]: 0.14

SMILES: O=c1c(Cc2ccc(OCCCCCCS(=O)(=O)[O-])c(F)c2)nc2c(Cc3ccccc3)[nH]c(-c3ccccc3)cn1-2.[Na+] [JRW-0769, sodium 6-(4-((8-benzyl-3-oxo-6-phenyl-3,7-dihydroimidazo[1,2-a]pyrazin-2-yl)methyl)-2-fluorophenoxy)hexane-1-sulfonate]
- Difference in RLU's in the presence and absence of the extracellular inhibitor (NanoLuc:KDR): Larger differences in RLU's
- RLU and effect of the extracellular inhibitor (KDR:NanoLuc [3]): much dimmer and can be inhibited close to background level
- Localization of the imaged Nluc-B2AR signal [1]: limited to membrane-localized receptor
- Lowered activity in the live cell format versus lytic format (KDR:NanoLuc [4]): 100 fold
- RLU at 100 uM [2]: 0.1
